Assay [1] deals with T1, Clostridium stercorarium DNA polymerase, N-terminal His6 tag (Cst-His), SEQ ID NO:14 (Thermoclostridium stercorarium, UniProt L7VMI6).
T1 sequence (L7VMI6 with tags, fused parts or gaps): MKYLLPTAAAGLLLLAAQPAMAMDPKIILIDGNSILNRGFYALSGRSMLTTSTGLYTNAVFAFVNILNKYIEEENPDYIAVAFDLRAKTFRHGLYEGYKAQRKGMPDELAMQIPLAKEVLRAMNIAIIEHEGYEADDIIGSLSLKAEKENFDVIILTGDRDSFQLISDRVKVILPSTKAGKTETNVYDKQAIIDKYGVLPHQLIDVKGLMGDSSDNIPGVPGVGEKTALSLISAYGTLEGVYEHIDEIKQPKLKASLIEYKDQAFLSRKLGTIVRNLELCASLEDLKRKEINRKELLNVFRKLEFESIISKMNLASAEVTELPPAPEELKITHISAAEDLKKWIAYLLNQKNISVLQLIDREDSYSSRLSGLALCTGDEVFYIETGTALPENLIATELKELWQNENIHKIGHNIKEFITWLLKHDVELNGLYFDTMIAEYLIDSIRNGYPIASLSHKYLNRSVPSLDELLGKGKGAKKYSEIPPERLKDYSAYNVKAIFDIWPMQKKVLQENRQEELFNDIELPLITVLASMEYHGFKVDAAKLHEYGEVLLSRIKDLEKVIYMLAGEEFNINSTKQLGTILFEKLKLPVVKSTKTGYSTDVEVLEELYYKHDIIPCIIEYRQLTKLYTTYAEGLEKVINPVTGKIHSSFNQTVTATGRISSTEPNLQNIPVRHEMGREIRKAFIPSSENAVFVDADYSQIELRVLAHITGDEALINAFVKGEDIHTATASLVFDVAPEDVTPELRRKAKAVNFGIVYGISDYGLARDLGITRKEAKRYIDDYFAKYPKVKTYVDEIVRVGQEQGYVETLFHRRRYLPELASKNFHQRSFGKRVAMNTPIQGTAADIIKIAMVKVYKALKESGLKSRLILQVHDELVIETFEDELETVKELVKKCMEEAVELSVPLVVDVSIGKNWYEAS
Put plainly: Steady-state kinetics, DNA- and RNA-dependent polymerase activity. The text has this: (§1) Subcloning of genes for Cst and Cth DNA polymerases. In order to improve expression and simplify purification of Cst and Cth DNA polymerase, the genes were subcloned downstream of a T7 promoter and an amino-terminal His6 tag sequence was introduced using Gateway cloning technology (Invitrogen Corporation, Carlsbad, Calif.). The sequence of the DNA oligonucleotide used at the 5′ end of the Cst gene was: 5′-[…] ATAGAC 3′ (SEQ ID NO:37). The sequence of the DNA oligonucleotide used at the 5′ end of the Cth gene was: 5′-[…] […]-3′ (SEQ ID NO:38). The sequence of the DNA oligonucleotide used at the 3′ end of each gene was the same: 5′-[…] […] 3′ (SEQ ID NO:39). Purified pET26B plasmid DNA (Novagen Inc., Madison, Wis.) bearing the gene for Cst or Cth DNA polymerase was amplified by PCR utilizing the primers listed above and Platinum Taq HiFi DNA polymerase (Invitrogen Corporation, Carlsbad, Calif.). PCR products purified by agarose gel electrophoresis were cloned into Gateway vector pDON21 and transferred by recombination into vector pDEST17. […] Each final recombinant plasmid was transformed into the E. coli expression host BL21-AI (Invitrogen Corporation, Carlsbad, Calif.).
(§2) Purification of Cst-His and Cth-His DNA polymerases. E. coli cells (BL21AI) bearing the plasmid pDEST17 with the gene for Cst-His or Cth-His DNA polymerase were grown in 2.8-1 Fembach flasks in LB broth containing 50 μg/ml ampicillin at 37° C. After the culture reached an A590 of 1.0, expression of DNA polymerase was induced by the addition of 0.2% arabinose for 3 hr. Cells were harvested by centrifugation and stored at −70° C.
(§3) Steady-state kinetic measurements.
(§4) The assays were conducted in the presence of 1.5 mM MgCl2 at 55° C. for all enzymes except the Caldibacillus cellulovorans CompA.2 enzyme where 2 mM MgCl2 and 45° C. were used.

Assay [2] deals with T2, Clostridium thermosulfurogenes DNA polymerase, N-terminal His6 tag (Cth-His), SEQ ID NO:15 (Thermoanaerobacterium thermosulfurigenes, UniProt Q6X9R5).
T2 sequence (Q6X9R5 with tags, fused parts or gaps): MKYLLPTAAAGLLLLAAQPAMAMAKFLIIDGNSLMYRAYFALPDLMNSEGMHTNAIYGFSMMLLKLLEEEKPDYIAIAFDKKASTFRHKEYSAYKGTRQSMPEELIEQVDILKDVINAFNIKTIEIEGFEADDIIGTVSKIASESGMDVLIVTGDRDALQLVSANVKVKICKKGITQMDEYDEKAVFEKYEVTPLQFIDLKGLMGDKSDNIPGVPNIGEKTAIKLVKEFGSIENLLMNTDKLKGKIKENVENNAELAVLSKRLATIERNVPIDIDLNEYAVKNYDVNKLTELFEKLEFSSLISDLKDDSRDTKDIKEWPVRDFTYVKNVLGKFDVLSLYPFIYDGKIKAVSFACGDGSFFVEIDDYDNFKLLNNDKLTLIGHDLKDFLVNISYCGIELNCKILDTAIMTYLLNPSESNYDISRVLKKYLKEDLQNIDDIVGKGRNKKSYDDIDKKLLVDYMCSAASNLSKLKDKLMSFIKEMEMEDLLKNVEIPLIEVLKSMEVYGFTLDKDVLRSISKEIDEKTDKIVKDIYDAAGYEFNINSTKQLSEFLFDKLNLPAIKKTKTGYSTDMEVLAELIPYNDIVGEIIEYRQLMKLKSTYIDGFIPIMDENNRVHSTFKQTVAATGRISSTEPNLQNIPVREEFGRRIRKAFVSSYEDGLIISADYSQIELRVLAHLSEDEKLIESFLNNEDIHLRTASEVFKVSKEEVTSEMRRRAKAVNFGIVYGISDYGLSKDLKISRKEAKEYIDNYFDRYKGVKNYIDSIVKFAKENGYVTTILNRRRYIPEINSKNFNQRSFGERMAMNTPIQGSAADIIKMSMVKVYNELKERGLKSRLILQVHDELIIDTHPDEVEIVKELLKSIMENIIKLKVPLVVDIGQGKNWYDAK
Described as above.
Text: as §1, §2, §3, §4

Setting [3] is: Table 34, RNA template, 2 mM MgCl2, 45 °C per footnote.
Where [4] appears, read: read-out: Km RNA (dTTP), Table 34, RNA template, 2 mM MgCl2, 45 °C per footnote.

On to `Cc1cn([C@H]2C[C@H](O)[C@@H](COP(=O)(O)OP(=O)(O)OP(=O)(O)O)O2)c(=O)[nH]c1=O` [dTTP], for which the results for the “Kcat RNA (dTTP)” value in assay [1] (setting [3]) and in assay [2] (setting [3]) were 19.2 s⁻¹ and 0.94 s⁻¹, respectively. Besides, the “kCAT Ratio (RNA/DNA)” value in assay [1] (Table 40, dTTP, 55 °C) is listed as 2.2; in assay [2] (Table 40, dTTP, 55 °C) it was 0.57. Moreover, the Km in assay [1] (setting [4]) was 76 µM; in assay [2] (setting [4]), 68 µM.

Usually Km stands for the substrate concentration at which the rate is half of its maximum.

The values are drawn from patent publication US20160108381A1, “DNA POLYMERASES AND MUTANTS THEREOF” (LIFE TECHNOLOGIES CORPORATION, priority 2001, published 2016).
